Counter-ions that a name gives are not always drawn.
Assays:
HiBit-BRM fusion protein = molecular target: T1, HiBit-BRM fusion protein (Homo sapiens, UniProt P51531); test: HiBiT-BRM cell-based degradation assay (Nano-Glo HiBiT Lytic Detection, 24 h); conditions: HeLa cells expressing HiBiT-BRM; for DC50: read-out: BRM HiBit Degradation IC50; for BRM HiBit Degradation Maximum measured: top dose 30 μM
T1 construct: expressed in transfected cells
Procedure, shortened: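 HeLa cells stably expressing HiBiT-BRM were dosed with compounds (10-point 3-fold dilutions, 30 μM final top dose, duplicate) for 24 h. HiBiT signal was read by lytic LgBiT complementation luminescence. Percent degradation was normalised to DMSO (high control) and 2 μM of a reference BRM/BRG1 degrader (low control).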

[1] = molecular target: T2, HiBit-BRG1 fusion protein (Homo sapiens, UniProt P51532); test: HiBiT-BRG1 cell-based degradation assay (Nano-Glo HiBiT Lytic Detection, 24 h); conditions: HeLa cells expressing HiBit-BRG1 and LgBit; for DC50: read-out: BRG1 HiBit Degradation IC50; for Dmax: HeLa, top dose 30 μM, read-out: BRG1 HiBit Degradation Maximum measured
T2 construct: expressed in transfected cells
T2 sequence (P51532 whole entry, the tested form may be a part): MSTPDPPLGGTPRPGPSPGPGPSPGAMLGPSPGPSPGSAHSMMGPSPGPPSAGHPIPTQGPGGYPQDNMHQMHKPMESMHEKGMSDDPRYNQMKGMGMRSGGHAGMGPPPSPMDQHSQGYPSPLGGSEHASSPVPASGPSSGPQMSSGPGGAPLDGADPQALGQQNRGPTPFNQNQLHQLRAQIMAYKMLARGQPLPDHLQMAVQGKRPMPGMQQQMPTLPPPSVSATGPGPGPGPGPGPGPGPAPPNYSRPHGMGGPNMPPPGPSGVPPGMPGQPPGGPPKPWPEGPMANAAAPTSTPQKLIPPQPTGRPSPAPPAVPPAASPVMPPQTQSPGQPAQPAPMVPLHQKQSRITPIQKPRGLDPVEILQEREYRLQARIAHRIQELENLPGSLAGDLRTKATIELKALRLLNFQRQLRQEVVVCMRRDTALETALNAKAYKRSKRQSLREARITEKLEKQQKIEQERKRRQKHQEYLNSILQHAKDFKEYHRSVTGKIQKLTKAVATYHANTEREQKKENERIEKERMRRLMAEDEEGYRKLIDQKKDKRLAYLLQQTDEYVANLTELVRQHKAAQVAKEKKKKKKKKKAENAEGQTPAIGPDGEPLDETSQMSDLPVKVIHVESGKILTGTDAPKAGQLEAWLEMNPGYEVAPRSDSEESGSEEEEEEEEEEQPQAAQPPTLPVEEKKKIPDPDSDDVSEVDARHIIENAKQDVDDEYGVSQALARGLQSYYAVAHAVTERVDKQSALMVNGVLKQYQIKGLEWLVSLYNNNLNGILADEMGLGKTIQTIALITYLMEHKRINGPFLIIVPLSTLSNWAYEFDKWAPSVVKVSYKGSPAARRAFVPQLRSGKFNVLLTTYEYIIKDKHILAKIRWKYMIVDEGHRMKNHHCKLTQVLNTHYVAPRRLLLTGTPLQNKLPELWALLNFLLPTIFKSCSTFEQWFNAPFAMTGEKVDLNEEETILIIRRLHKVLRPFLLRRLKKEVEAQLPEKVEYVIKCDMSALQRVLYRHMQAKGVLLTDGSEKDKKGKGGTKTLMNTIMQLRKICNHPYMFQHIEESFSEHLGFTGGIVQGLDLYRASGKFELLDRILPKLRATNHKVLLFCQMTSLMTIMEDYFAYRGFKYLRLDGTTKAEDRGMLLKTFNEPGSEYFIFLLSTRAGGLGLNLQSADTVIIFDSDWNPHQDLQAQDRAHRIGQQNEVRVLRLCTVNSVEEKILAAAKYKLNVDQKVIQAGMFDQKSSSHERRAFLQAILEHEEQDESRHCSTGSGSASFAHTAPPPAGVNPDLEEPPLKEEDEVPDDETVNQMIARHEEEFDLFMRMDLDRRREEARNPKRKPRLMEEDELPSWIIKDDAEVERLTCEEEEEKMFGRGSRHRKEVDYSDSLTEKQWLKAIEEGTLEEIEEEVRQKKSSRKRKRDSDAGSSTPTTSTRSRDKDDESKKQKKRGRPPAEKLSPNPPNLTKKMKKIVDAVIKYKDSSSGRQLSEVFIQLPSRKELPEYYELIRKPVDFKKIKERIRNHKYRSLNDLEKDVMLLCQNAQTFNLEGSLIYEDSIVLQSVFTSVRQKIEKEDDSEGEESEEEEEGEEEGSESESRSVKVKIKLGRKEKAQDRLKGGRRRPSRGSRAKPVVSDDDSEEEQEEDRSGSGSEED
Procedure, shortened: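 Stable HeLa line expressing HiBiT-BRG1 and LgBiT, seeded at 5000 cells/well; luminescence read after lytic Nano-Glo HiBiT reagent and 10 min shaking at RT. % degradation normalised between DMSO (high control) and 2 μM reference BRM/BRG1 degrader (low control).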

T1 sequence (P51531 whole entry, the tested form may be a part): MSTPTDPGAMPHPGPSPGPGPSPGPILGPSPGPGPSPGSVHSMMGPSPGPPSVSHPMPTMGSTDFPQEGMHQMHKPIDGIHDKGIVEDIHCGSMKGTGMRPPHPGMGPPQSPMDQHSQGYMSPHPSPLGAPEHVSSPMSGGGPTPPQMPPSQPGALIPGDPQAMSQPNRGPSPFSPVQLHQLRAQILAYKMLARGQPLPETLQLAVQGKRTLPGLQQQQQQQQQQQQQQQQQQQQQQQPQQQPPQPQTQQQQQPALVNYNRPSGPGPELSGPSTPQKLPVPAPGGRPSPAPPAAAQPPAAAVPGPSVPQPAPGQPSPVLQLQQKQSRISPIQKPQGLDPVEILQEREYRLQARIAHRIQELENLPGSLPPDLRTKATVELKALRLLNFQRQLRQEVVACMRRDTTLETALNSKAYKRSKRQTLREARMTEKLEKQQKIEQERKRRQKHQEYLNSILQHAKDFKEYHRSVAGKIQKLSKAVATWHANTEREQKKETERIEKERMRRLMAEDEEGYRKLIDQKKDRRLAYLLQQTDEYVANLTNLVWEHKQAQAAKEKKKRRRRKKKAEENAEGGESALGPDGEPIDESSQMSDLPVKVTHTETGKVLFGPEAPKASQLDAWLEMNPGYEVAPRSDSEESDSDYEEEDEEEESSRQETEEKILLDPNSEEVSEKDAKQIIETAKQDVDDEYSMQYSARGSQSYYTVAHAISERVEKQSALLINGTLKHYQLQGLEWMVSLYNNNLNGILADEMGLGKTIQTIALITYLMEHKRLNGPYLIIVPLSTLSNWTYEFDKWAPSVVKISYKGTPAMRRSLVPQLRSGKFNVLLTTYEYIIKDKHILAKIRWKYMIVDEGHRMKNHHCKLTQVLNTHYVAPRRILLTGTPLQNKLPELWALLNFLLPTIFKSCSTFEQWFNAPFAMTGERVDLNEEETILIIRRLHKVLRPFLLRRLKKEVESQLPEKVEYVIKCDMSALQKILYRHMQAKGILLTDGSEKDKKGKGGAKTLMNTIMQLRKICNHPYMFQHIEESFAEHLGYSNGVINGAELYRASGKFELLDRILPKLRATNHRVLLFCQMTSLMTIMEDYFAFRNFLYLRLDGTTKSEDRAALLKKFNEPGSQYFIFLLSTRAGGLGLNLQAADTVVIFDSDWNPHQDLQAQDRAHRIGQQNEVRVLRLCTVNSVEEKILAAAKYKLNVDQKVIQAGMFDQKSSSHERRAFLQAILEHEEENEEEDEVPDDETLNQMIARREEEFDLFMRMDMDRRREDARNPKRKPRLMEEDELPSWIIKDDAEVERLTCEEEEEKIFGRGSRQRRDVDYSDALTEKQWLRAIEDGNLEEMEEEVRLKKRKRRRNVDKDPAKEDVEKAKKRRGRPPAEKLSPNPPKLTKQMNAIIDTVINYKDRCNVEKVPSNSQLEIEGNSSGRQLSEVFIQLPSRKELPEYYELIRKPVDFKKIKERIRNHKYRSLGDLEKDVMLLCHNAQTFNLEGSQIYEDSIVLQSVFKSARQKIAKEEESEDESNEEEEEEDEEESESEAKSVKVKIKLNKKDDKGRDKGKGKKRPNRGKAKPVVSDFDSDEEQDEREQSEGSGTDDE

Row | SMILES | DC50 (HiBit-BRM fusion protein) [µM] | BRM HiBit Degradation Maximum measured (HiBit-BRM fusion protein) | DC50 [1] [nM] | Dmax [1] [%]
1 | Cc1ncsc1-c1ccc(CNC(=O)[C@@H]2C[C@@H](O)CN2C(=O)[C@@H](NC(=O)CCCCCCCCC(=O)NCc2ccc(COC[C@H](NC(=O)c3ccn(S(C)(=O)=O)c3)C(=O)Nc3nc(-c4ccccc4)cs3)cc2)C(C)(C)C)cc1 [Compound 177, N-[(2S)-1-[(2S,4R)-4-hydroxy-2-([[4-(4-methyl-1,3-thiazol-5-yl)phenyl]methyl]carbamoyl)pyrrolidin-1-yl]-3,3-dimethyl-1-oxobutan-2-yl]-N′-[(4-[[(2S)-2-[(1-methanesulfonylpyrrol-3-yl)formamido]-2-[(4-phenyl-1,3-thiazol-2-yl)carbamoyl]ethoxy]methyl]phenyl)methyl]decanediamide] | > 10 | C (‘C’ = Maximum degradation <50%) | 100 to 1000 | 50 to 75
2 | CS(=O)(=O)n1ccc(C(=O)NCC(=O)Nc2nc(-c3cccc(-c4ccnc(N5CCN(C(=O)CCOCCOCCOc6ccc7c(c6)C(=O)N(C6CCC(=O)NC6=O)C7=O)CC5)c4)c3)cs2)c1 (stereo not shown) [Compound 73, N-[2-[[4-[3-[2-[4-[3-[2-[2-[2-(2,6-dioxo-3-piperidyl)-1,3-dioxo-isoindolin-5-yl]oxyethoxy]ethoxy]propanoyl]piperazin-1-yl]-4-pyridyl]phenyl]thiazol-2-yl]amino]-2-oxo-ethyl]-1-methylsulfonyl-pyrrole-3-carboxamide] | 0.1 to 1 | A (‘A’ = Maximum degradation >75%) | 100 to 1000 | > 75
3 | CS(=O)(=O)n1ccc(C(=O)N[C@@H](COCc2ccc(C(=O)NCCOc3ccc4c(c3)C(=O)N(C3CCC(=O)NC3=O)C4=O)cc2)C(=O)Nc2nc(-c3ccccc3)cs2)c1 (stereo partly drawn) [Compound 200, N-(2-[[2-(2,6-dioxopiperidin-3-yl)-1,3-dioxoisoindol-5-yl]oxy]ethyl)-4-[[(2S)-2-[(1-methanesulfonylpyrrol-3-yl)formamido]-2-[(4-phenyl-1,3-thiazol-2-yl)carbamoyl]ethoxy]methyl]benzamide] | > 10 | C (‘C’ = Maximum degradation <50%) | > 10000 | < 50
4 | CS(=O)(=O)n1ccc(C(=O)N[C@@H](COCc2ccc(C(=O)N3CCC(CCCCN4CCN(c5ccc6c(c5)C(=O)N(C5CCC(=O)NC5=O)C6=O)CC4)CC3)cc2)C(=O)Nc2nc(-c3ccccc3)cs2)c1 (stereo partly drawn) [Compound 195, N-((2S)-3-((4-(4-(4-(4-(2-(2,6-dioxopiperidin-3-yl)-1,3-dioxoisoindolin-5-yl)piperazin-1-yl)butyl)piperidine-1-carbonyl)benzyl)oxy)-1-oxo-1-((4-phenylthiazol-2-yl)amino)propan-2-yl)-1-(methylsulfonyl)-1H-pyrrole-3-carboxamide formate] | > 10 | C (‘C’ = Maximum degradation <50%) | > 10000 | < 50
5 | CS(=O)(=O)n1ccc(C(=O)NCC(=O)Nc2nc(-c3cccc(-c4ccnc(C5(C(=O)NCCCCS(=O)(=O)CCCNc6cccc7c6C(=O)N(C6CCC(=O)NC6=O)C7=O)CC5)c4)c3)cs2)c1 (stereo not shown) [Compound 103, N-(2-((4-(3-(2-(1-((4-((3-((2-(2,6-dioxopiperidin-3-yl)-1,3-dioxoisoindolin-4-yl)amino)propyl)sulfonyl)butyl)carbamoyl)-cyclopropyl)pyridin-4-yl)phenyl)thiazol-2-yl)amino)-2-oxoethyl)-1-(methylsulfonyl)-1H-pyrrole-3-carboxamide] | 0.1 to 1 | B (‘B’ = Maximum degradation ≥50% and ≤75%) | 100 to 1000 | > 75
6 | CS(=O)(=O)n1ccc(C(=O)NCC(=O)Nc2nc(-c3cccc(-c4ccnc(OCCNC(=O)CCOCCOCCNc5ccc6c(c5)C(=O)N(C5CCC(=O)NC5=O)C6=O)c4)c3)cs2)c1 (stereo not shown) [Compound 83, N-[2-[[4-[3-[2-[2-[3-[2-[2-[[2-(2,6-dioxo-3-piperidyl)-1,3-dioxoisoindolin-5-yl]amino]ethoxy]ethoxy]propanoylamino]ethoxy]-4-pyridyl]phenyl]thiazol-2-yl]amino]-2-oxo-ethyl]-1-methylsulfonyl-pyrrole-3-carboxamide] | > 10 | C (‘C’ = Maximum degradation <50%) | > 10000 | < 50
7 | Cc1ncsc1-c1ccc(CNC(=O)[C@@H]2C[C@@H](O)CN2C(=O)[C@@H](NC(=O)CCC(=O)N2CCN(c3cc(-c4cccc(-c5csc(NC(=O)CNC(=O)c6ccn(S(C)(=O)=O)c6)n5)c4)ccn3)CC2)C(C)(C)C)cc1 [Compound 74, N-[2-[[4-[3-[2-[4-[4-[[(1S)-1-[(2S,4R)-4-hydroxy-2-[[4-(4-methylthiazol-5-yl)phenyl]methylcarbamoyl]pyrrolidine-1-carbonyl]-2,2-dimethyl-propyl]amino]-4-oxo-butanoyl]piperazin-1-yl]-4-pyridyl]phenyl]thiazol-2-yl]amino]-2-oxo-ethyl]-1-methylsulfonyl-pyrrole-3-carboxamide] | > 10 | C (‘C’ = Maximum degradation <50%) | > 10000 | < 50
8 | CS(=O)(=O)n1ccc(C(=O)NCC(=O)Nc2nc(-c3cccc(-c4ccnc(C5(C(=O)NCCS(=O)(=O)CCNc6cccc7c6C(=O)N(C6CCC(=O)NC6=O)C7=O)CC5)c4)c3)cs2)c1 (stereo not shown) [Compound 102, N-[2-[[4-[3-[2-[1-[2-[2-[[2-(2,6-dioxo-3-piperidyl)-1,3-dioxo-isoindolin-4-yl]amino]ethylsulfonyl]ethylcarbamoyl]-cyclopropyl]-4-pyridyl]phenyl]thiazol-2-yl]amino]-2-oxo-ethyl]-1-methylsulfonylpyrrole-3-carboxamide] | > 10 | C (‘C’ = Maximum degradation <50%) | 100 to 1000 | 50 to 75
9 | Cc1ncsc1-c1ccc(CNC(=O)[C@@H]2C[C@@H](O)CN2C(=O)[C@@H](NC(=O)NCc2cccc(-c3cccc(-c4csc(NC(=O)CNC(=O)c5ccn(S(C)(=O)=O)c5)n4)c3)c2)C(C)(C)C)cc1 [Compound 158, (2S,4R)-4-hydroxy-1-[(2S)-2-[([[3-(2-[2-[(1-methanesulfonylpyrrol-3-yl)formamido]acetamido]-1,3-thiazol-4-yl)-[1,1-biphenyl]-3-yl]methyl]carbamoyl)amino]-3,3-dimethylbutanoyl]-N-[[4-(4-methyl-1,3-thiazol-5-yl)phenyl]methyl]pyrrolidine-2-carboxamide] | > 10 | C (‘C’ = Maximum degradation <50%) | > 10000 | < 50
10 | Cc1ncsc1-c1ccc(CNC(=O)[C@@H]2C[C@@H](O)CN2C(=O)[C@@H](NC(=O)CCCCCCCCCNC(=O)CN(C)c2cc(-c3cccc(-c4csc(NC(=O)CNC(=O)c5ccn(S(C)(=O)=O)c5)n4)c3)ccn2)C(C)(C)C)cc1 [Compound 47] | < 0.1 | B (‘B’ = Maximum degradation ≥50% and ≤75%) | < 100 | 50 to 75
